{
  "source": "patent US20250283049A1",
  "about": "“AGENT FOR CULTURING ORGANOID IN ABSENCE OF EXTRACELLULAR MATRIX” (KEIO UNIVERSITY, priority 2022, published 2025)",
  "format_in_all_cases": "cell-based",
  "key": {"[1]": {"tested_on": "human small intestine-derived organoid", "test": "Culture of organoids in absence of Matrigel with LATS kinase inhibitor; cell number by ATP (CellTiter-Glo 3D)", "experimental": "In this experimental example, a human small intestine-derived organoid and human large intestine-derived organoid established in the presence of Matrigel (registered trademark) were cultured in the absence of Matrigel (registered trademark) and in the presence of a LATS kinase inhibitor (final concentration: 10 μM), and their dynamics were observed. The procedure was the same as in Experimental Example 1, except that each organoid was cultured in the absence of Matrigel (registered trademark).\nThe upper left panel of FIG. 3 is a photograph of a control (Ctrl) human small intestine-derived organoid cultured in the absence of Lats-IN, and the upper center panel of FIG. 3 is a photograph of a human small intestine-derived organoid cultured in the presence of Lats-IN. The scale bar is 100 μm. […] The vertical axis of the graph represents luminescence intensity (relative value) indicating the amount of ATP present. […]\nFIG. 8 presents graphs showing the results of measuring the proliferation of the human small intestine-derived and human large intestine-derived organoids in the absence of Lats-IN (Ctrl), in the presence of Lats-IN (Lats-IN), in the presence of Lats-IN and MYF01-37 (Lats-IN+MYF), and in the presence of MYF01-37 (MYF). The cell proliferation was measured by measuring ATP using a commercially available kit (product name “CellTiter-Glo 3D,” Promega Corporation). The vertical axis of the graph represents luminescence intensity (relative value) indicating the amount of ATP present. […]\nFIG. 26 presents graphs showing the results of measuring cell number in each organoid after 6 days of culture by measuring ATP using a commercially available kit (product name “CellTiter-Glo 3D,” Promega Corporation). The vertical axis of the graph represents luminescence intensity (relative value) indicating the amount of ATP present."}, "[2]": {"tested_on": "human small intestine-derived organoids dissociated into single cells", "test": "Organoid formation from single cells", "text": "Therefore, to examine whether signals from cell-to-cell interactions are involved in cell proliferation mediated by transcriptional regulation of YAP-TEAD by LATS inhibition, human small intestine-derived organoids were dissociated into single cells and then observed organoid formation from the single cells.\nFIG. 9 presents representative photographs showing the results of organoid formation from single cells in the presence or absence of Matrigel (registered trademark) and in the absence or presence of Lats-IN (final concentration: 10 μM). In FIG. 9, the arrowheads indicate cells or organoids. In addition, D1, D4, and D7 indicate the first, fourth, and seventh days, respectively, after the start of culture. […] In addition, the percentage (%) of cells that formed organoids among the seeded single cells is also shown."}, "[3]": {"tested_on": "human large intestine-derived organoids", "test": "Niche factor removal; organoid proliferation by ATP (CellTiter-Glo 3D)", "details": "absence of Matrigel; Lats-IN 10 μM; some WRENAIF niche factors removed", "experimental": "(§1) In this experimental example, the relationship between LATS inhibition and the niche factors essential for organoid culture was examined. FIG. 14 presents graphs showing the results of measuring the proliferation of human small intestine-derived organoids and human large intestine-derived organoids cultured under conditions in which all WRENAIF niche factors were added, and under conditions in which some of these niche factors were removed. As a medium to which all of the WRENAIF niche factors were added, the medium whose composition is shown in Table 1 above was used, and as a medium from which some of these niche factors were removed, a medium from which the corresponding niche factors were removed from the medium whose composition is shown in Table 1 above was used. The cell proliferation was measured by measuring ATP using a commercially available kit (product name “CellTiter-Glo 3D,” Promega Corporation). The vertical axis of the graph represents luminescence intensity (relative value) indicating the amount of ATP present.\n(§2) In addition, on the horizontal axis, added niche factors are shown in black, and niche factors not added are shown in light color."}, "[4]": {"tested_on": "human small intestine-derived organoids", "test": "Niche factor removal; organoid proliferation by ATP (CellTiter-Glo 3D)", "details": "absence of Matrigel; Lats-IN 10 μM; some WRENAIF niche factors removed", "experimental": "as §1, §2"}, "[5]": {"tested_on": "AXIN2 gene", "test": "AXIN2 gene expression by quantitative real-time PCR in human small intestine-derived organoids", "details": "absence of Matrigel; Lats-IN 10 μM", "experimental": "Human small intestine-derived organoids and human large intestine-derived organoids were cultured in the absence or presence of Matrigel (registered trademark) and in the absence or presence of Lats-IN (final concentration: 10 μM), and the expression level of the AXIN2 gene, whose expression is regulated by Wnt, was examined by quantitative real-time PCR.\nFIG. 16 presents graphs showing the results of quantitative real-time PCR."}},
  "data": [
    {"smiles": "O=C(N=c1sccn1Cc1ccccc1)c1c[nH]c2ncccc12", "note": "[Lats-IN]", "values": [
      {"measurement": "cell proliferation (ATP luminescence)", "setting": "[1]; Experimental Example 5, Lats-IN 10 μM alone", "value": "activated"},
      {"measurement": "cell proliferation (cell number, ATP luminescence)", "setting": "[1]; final concentration 10 μM, 7 days of culture, vs control", "value": "significantly activated"},
      {"measurement": "organoid formation from single cells", "setting": "[2]; absence of Matrigel, presence of Lats-IN 10 μM, up to day 7", "value": "proliferated from single cells and formed organoids"},
      {"measurement": "percentage of cells that formed organoids", "setting": "[2]; presence of Matrigel and Lats-IN compared with absence of Matrigel and presence of Lats-IN", "value": "higher"},
      {"measurement": "cell proliferation without one or two niche factors", "setting": "[3]", "value": "cells proliferated"},
      {"measurement": "cell proliferation without one or two niche factors", "setting": "[4]", "value": "cells proliferated"},
      {"measurement": "expression level of AXIN2", "setting": "[5]", "value": "increased to a level equivalent to that in the presence of Matrigel"}
    ]}
  ]
}
